Test results published in patent publication US20120115907A1, “NOVEL COMPOUNDS AS INHIBITORS OF RENIN” (CADILA HEALTHCARE LIMITED, priority 2009, published 2012).
Counter-ions that a name gives are not always drawn.

Target: T1, human recombinant renin (Homo sapiens, UniProt P00797)
T1 construct: purchased Cayman 10006270
T1 sequence (P00797 67-406): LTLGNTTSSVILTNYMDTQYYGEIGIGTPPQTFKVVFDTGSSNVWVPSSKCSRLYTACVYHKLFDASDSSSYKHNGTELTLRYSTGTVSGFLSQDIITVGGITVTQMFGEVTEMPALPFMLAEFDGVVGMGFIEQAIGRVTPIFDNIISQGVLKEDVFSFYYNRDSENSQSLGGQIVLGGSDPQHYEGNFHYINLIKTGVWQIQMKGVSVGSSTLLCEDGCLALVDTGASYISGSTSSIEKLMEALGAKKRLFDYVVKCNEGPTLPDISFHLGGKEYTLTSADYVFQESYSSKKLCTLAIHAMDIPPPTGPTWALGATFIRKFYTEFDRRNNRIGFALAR
Assay: Inhibition of human recombinant renin (modified Cayman renin inhibitor screening assay, fluorescence)
Format: biochemical
Settings: for inhibition at 0.01 µM / Renin inhibition (percent inhibition of renin activity) at 0.01 μM: 0.01 μM compound; for inhibition at 0.01 µM / inhibition at 0.1 µM / Renin inhibition (percent inhibition of renin activity) at 0.01 μM / Renin inhibition (percent inhibition of renin activity) at 0.1 μM: 37° C., 30 mins, human recombinant renin; for inhibition at 0.01 µM: read-out: Renin inhibition (percent inhibition of renin activity) at 0.01 μM; for inhibition at 0.1 µM / Renin inhibition (percent inhibition of renin activity) at 0.1 μM: 0.1 μM compound; for inhibition at 0.1 µM: read-out: Renin inhibition (percent inhibition of renin activity) at 0.1 μM
Experimental: In-vitro protocol for the Inhibition of human recombinant renin by the compound of invention • Procedure: The enzymatic in vitro assay was performed in 96 well polypropylene plate (Nunc), using a modified Renin inhibitor screening assay protocol (Cayman, cat no: 10006270). The reaction system comprised assay buffer containing 50 mM Tris-HCL, pH=8.0 & 100 mM sodium chloride, human recombinant rennin (1:20 diluted with fixed activity), synthetic renin substrates (Cayman, cat no: 10006906) (14.4 μM) and different concentrations of renin inhibitors in DMSO in a total reaction system of 100 μl. The entire reaction mixture were incubated at 37° C. for 30 mins and the fluorescence was read at excitation wavelengths of 320-360 nm and emission wavelengths of 490-520 nm. Test compounds efficacy was determined by the percent inhibition of renin activity using Aliskiren (Tekturna) as a reference standard.
Following table represents measured IC50 values of the selected compounds for its inhibition of human recombinant renin.

Cc1cc(Cl)c(OCCOc2ccc(C(=O)NC3CCNCC3C(=O)N(Cc3ccc(Cl)cc3Cl)C3CC3)cc2)c(Cl)c1 (mixture of isomers) [Example 5, N-Cyclopropyl-4-(4-(2-(2,6-dichloro-4-methylphenoxy)ethoxy)benzamido)-N-(2,4-dichlorobenzyl)piperidine-3-carboxamide]
IC50: 39 nM | inhibition at 0.01 µM: 42% | inhibition at 0.1 µM: 81%

COCCCOc1cccc(CN(C(=O)C2CNCCC2NC(=O)c2ccc(OCCOc3c(Cl)cccc3Cl)cc2)C2CC2)c1 (stereo not shown) [Example 3, N-Cyclopropyl-4-(4-(2-(2,6-dichlorophenoxy)ethoxy)benzamido)-N-(3-(3-methoxypropoxy)benzyl)piperidine-3-carboxamide]
inhibition at 0.01 µM: < 10% | inhibition at 0.1 µM: 43%

Cc1cc(C)cc(CN(C(=O)C2CNCCC2NC(=O)c2ccc(OCCOc3c(Cl)cccc3Cl)cc2)C2CC2)c1 (stereo not shown) [Example 4, N-Cyclopropyl-4-(4-(2-(2,6-dichlorophenoxy)ethoxy)benzamido)-N-(3,5-dimethylbenzyl)piperidine-3-carboxamide]
inhibition at 0.01 µM: < 10% | inhibition at 0.1 µM: 47%

O=C(NC1CCNCC1C(=O)N(Cc1ccc(Cl)cc1Cl)C1CC1)c1ccc(OCCOc2c(Cl)cccc2Cl)cc1 (stereo not shown) [Example 6, N-Cyclopropyl-N-(2,4-dichlorobenzyl)-4-(4-(2-(2,6-dichlorophenoxy)ethoxy)benzamido) piperidine-3-carboxamide]
Renin inhibition (percent inhibition of renin activity) at 0.01 μM: * (Inactive at tested concentration) | Renin inhibition (percent inhibition of renin activity) at 0.1 μM: 40%

COc1ccc(CN(C(=O)C2CNCCC2NC(=O)c2ccc(OCCOc3c(Cl)cc(C)cc3Cl)cc2)C2CC2)cc1OC (stereo not shown) [Example 8, N-Cyclopropyl-4-(4-(2-(2,6-dichloro-4-methylphenoxy)ethoxy)benzamido)-N-(3,4-dimethoxybenzyl)piperidine-3-carboxamide]
inhibition at 0.01 µM: < 10% | inhibition at 0.1 µM: 41%

Cc1cc(C)cc(CN(C(=O)C2CNCCC2NC(=O)c2ccc(OCCOc3c(Cl)cc(C)cc3Cl)cc2)C2CC2)c1 (stereo not shown) [Example 10, N-Cyclopropyl-4-(4-(2-(2,6-dichloro-4-methylphenoxy)ethoxy)benzamido)-N-(3,5-dimethylbenzyl)piperidine-3-carboxamide]
inhibition at 0.01 µM: < 10% | inhibition at 0.1 µM: 44%

Cc1cc(Cl)c(OCCOc2ccc(C(=O)NC3CCNCC3C(=O)N(Cc3ccc4ccccc4c3)C3CC3)cc2)c(Cl)c1 (stereo not shown) [Example 12, N-Cyclopropyl-4-(4-(2-(2,6-dichloro-4-methylphenoxy)ethoxy)benzamido)-N-(naphthalen-2-ylmethyl)piperidine-3-carboxamide]
IC50: 64 nM | inhibition at 0.01 µM: 43% | inhibition at 0.1 µM: 89%

COc1cccc(CN(C(=O)C2CNCC[C@@H]2NC(=O)c2ccc(OCCOc3c(Cl)cc(C)cc3Cl)cc2)C2CC2)c1OC.Cl (stereo partly drawn) [Example 14, (4S)—N-cyclopropyl-4-(4-(2-(2,6-dichloro-4-methylphenoxy)ethoxy)benzamido)-N-(2,3-dimethoxybenzyl)piperidine-3-carboxamide hydrochloride]
inhibition at 0.01 µM: 19% | Renin inhibition (percent inhibition of renin activity) at 0.1 μM (hydrochloride, 0.1 µM): 66%

COc1cccc(CN(C(=O)C2CNCC[C@@H]2NC(=O)c2ccc(OCCOc3c(Cl)cc(C)cc3Cl)cc2)C2CC2)c1OC.Cl (stereo partly drawn) [Example 15, (4S)—N-cyclopropyl-4-(4-(2-(2,6-dichloro-4-methylphenoxy)ethoxy)benzamido)-N-(2,3-dimethoxybenzyl)piperidine-3-carboxamide hydrochloride]
Renin inhibition (percent inhibition of renin activity) at 0.01 μM (hydrochloride, 0.01 µM): 13% | Renin inhibition (percent inhibition of renin activity) at 0.1 μM (hydrochloride, 0.1 µM): 12%

COc1ccccc1COCCOc1ccc(C(=O)N[C@H]2CCNCC2C(=O)N(Cc2cccc(C)c2C)C2CC2)cc1 (stereo partly drawn) [Example 16, (4S)—N-Cyclopropyl-N-(2,3-dimethylbenzyl)-4-(4-(2-((2-methoxybenzyl)oxy)ethoxy)benzamido)piperidine-3-carboxamide]
inhibition at 0.01 µM: 11% | inhibition at 0.1 µM: 52%

Cc1cc(Cl)c(OCCOc2ccc(C(=O)N[C@H]3CCNCC3C(=O)N(Cc3ccc(C)c(C)c3)C3CC3)cc2)c(Cl)c1.Cl (stereo partly shown) [Example 18]
Renin inhibition (percent inhibition of renin activity) at 0.01 μM: 20% | Renin inhibition (percent inhibition of renin activity) at 0.1 μM: 56%

Cc1cc(Cl)c(OCCOc2ccc(C(=O)N[C@H]3CCNCC3C(=O)N(Cc3cccc(C)c3C)C3CC3)cc2)c(Cl)c1 (stereo partly drawn) [Example 20, (4S)—N-Cyclopropyl-4-(4-(2-(2,6-dichloro-4-methylphenoxy)ethoxy)benzamido)-N-(2,3-dimethylbenzyl)piperidine-3-carboxamide hydrochloride]
IC50: 13 nM | inhibition at 0.01 µM: 48% | inhibition at 0.1 µM: 91%

Cc1cc(Cl)c(OCCOc2ccc(C(=O)N[C@@H]3CCNCC3C(=O)N(Cc3ccc(C)c(C)c3)C3CC3)cc2)c(Cl)c1 (stereo partly drawn) [Example 22, (4R)—N-Cyclopropyl-4-(4-(2-(2,6-dichloro-4-methylphenoxy)ethoxy)benzamido)-N-(3,4-dimethylbenzyl)piperidine-3-carboxamide hydrochloride]
inhibition at 0.01 µM: < 10% | inhibition at 0.1 µM: 40%

Cc1cc(Cl)c(OCCOc2ccc(C(=O)N[C@@H]3CCNCC3C(=O)N(Cc3cccc(C)c3C)C3CC3)cc2)c(Cl)c1 (stereo partly drawn) [Example 24, (4R)—N-Cyclopropyl-4-(4-(2-(2,6-dichloro-4-methylphenoxy)ethoxy)benzamido)-N-(2,3-dimethylbenzyl)piperidine-3-carboxamide hydrochloride]
inhibition at 0.01 µM: 10% | inhibition at 0.1 µM: 83%

COc1ccccc1COCCCOc1ccc(C(=O)N[C@H]2CCNCC2C(=O)N(Cc2cccc(C)c2C)C2CC2)cc1.Cl (stereo partly shown) [Example 27]
Renin inhibition (percent inhibition of renin activity) at 0.01 μM (hydrochloride): * (Inactive at tested concentration) | Renin inhibition (percent inhibition of renin activity) at 0.1 μM (hydrochloride, 0.1 µM): 38%

COc1ccccc1COCCCOc1ccc(C(=O)N[C@H]2CCNCC2C(=O)N(Cc2cccc(C)c2C)C2CC2)cc1 (stereo partly drawn) [Example 28, (4S)—N-Cyclopropyl-N-(2,3-dimethylbenzyl)-4-(4-(3-((2-methoxybenzyl)oxy)propoxy)benzamido)piperidine-3-carboxamide hydrochloride]
inhibition at 0.01 µM: 60% | inhibition at 0.1 µM: 93%

Cc1cc(Cl)c(OCCOc2ccc(C(=O)N[C@H]3CCNCC3C(=O)N(Cc3ccccc3F)C3CC3)cc2)c(Cl)c1 (stereo partly drawn) [Example 29, (4S)—N-Cyclopropyl-4-(4-(2-(2,6-dichloro-4-methylphenoxy)ethoxy)benzamido)-N-(2-fluorobenzyl)piperidine-3-carboxamide hydrochloride]
inhibition at 0.01 µM: 11% | inhibition at 0.1 µM: 65%

Cc1cc(Cl)c(OCCOc2ccc(C(=O)N[C@H]3CCNCC3C(=O)N(Cc3ccccc3Cl)C3CC3)cc2)c(Cl)c1 (stereo partly drawn) [Example 30, (4S)—N-(2-Chlorobenzyl)-N-cyclopropyl-4-(4-(2-(2,6-dichloro-4-methylphenoxy)ethoxy)benzamido)piperidine-3-carboxamide hydrochloride]
inhibition at 0.01 µM: < 10% | inhibition at 0.1 µM: 87%

COc1ccccc1COCCCOc1ccc(C(=O)N[C@H]2CCNCC2C(=O)N(Cc2ccccc2OC)C2CC2)cc1 (stereo partly drawn) [Example 33, (4S)—N-Cyclopropyl-N-(2-methoxybenzyl)-4-(4-(3-((2-methoxybenzyl)oxy)propoxy)benzamido)piperidine-3-carboxamide hydrochloride]
inhibition at 0.01 µM: < 10% | inhibition at 0.1 µM: 17%

Cc1cc(Cl)c(OCCOc2ccc(C(=O)N[C@H]3CCNCC3C(=O)N(Cc3cccc(Cl)c3Cl)C3CC3)cc2)c(Cl)c1 (stereo partly drawn) [Example 35, (4S)—N-Cyclopropyl-4-(4-(2-(2,6-dichloro-4-methylphenoxy)ethoxy)benzamido)-N-(2,3-dichlorobenzyl)piperidine-3-carboxamide hydrochloride]
inhibition at 0.01 µM: 60% | inhibition at 0.1 µM: 95%

COc1cccc(CN(C(=O)C2CNCC[C@@H]2NC(=O)c2ccc(OCCOc3c(Cl)cc(C)cc3Cl)cc2)C2CC2)c1C (stereo partly drawn) [Example 37, (4S)—N-Cyclopropyl-4-(4-(2-(2,6-dichloro-4-methylphenoxy)ethoxy)benzamido)-N-(3-methoxy-2-methylbenzyl)piperidine-3-carboxamide hydrochloride]
IC50: 17 nM | inhibition at 0.01 µM: 24% | inhibition at 0.1 µM: 81%
